Experiment: aqueous solubility
Format: physicochemical
Details: aqueous environment, water; aqueous environments; about 22° C. unless otherwise specified
Description: The CETP inhibitor may be any compound capable of inhibiting the cholesteryl ester transfer protein. Solid amorphous dispersions are particularly useful for CETP inhibitors that have sufficiently low aqueous solubility, low bioavailability or slow rate of absorption such that it is desirable to increase their concentration in an aqueous environment of use. The CETP inhibitor is typically “sparingly water-soluble,” which means that the CETP inhibitor has a minimum aqueous solubility of less than about 1 to 2 mg/mL at any physiologically relevant pH (e.g., pH 1-8) and at about 22° C. Many CETP inhibitors are “substantially water-insoluble,” which means that the CETP inhibitor has a minimum aqueous solubility of less than about 0.01 mg/mL (or 10 μg/ml) at any physiologically relevant pH (e.g., pH 1-8) and at about 22° C. (Unless otherwise specified, reference to aqueous solubility herein and in the claims is determined at about 22° C.) Compositions of the present invention find greater utility as the solubility of the CETP inhibitors decreases, and thus are preferred for CETP inhibitors with solubilities less than about 10 μg/mL, more preferred for CETP inhibitors with solubilities less than about 2 μg/mL, and even more preferred for CETP inhibitors with solubilities less than about 1 μg/mL. […]

solubility: < 0.04 µg/mL
SMILES: CCOC(=O)N1c2ccc(C(F)(F)F)cc2[C@@H](N(Cc2cc(C(F)(F)F)cc(C(F)(F)F)c2)C(=O)OC)C[C@H]1CC [torcetrapib, [2R,4S]-4-[(3,5-bis-trifluoromethyl-benzyl)-methoxycarbonyl-amino]-2-ethyl-6-trifluoromethyl-3,4-dihydro-2H-quinoline-1-carboxylic acid ethyl ester]
